Results reported in patent publication US10751417B2, “Sustained release delivery systems comprising traceless linkers” (NOVARTIS AG, priority 2017, dated 2020).

assay: Release study 8-4b: degradation of model conjugates M20-M27 in aqueous DMF:PBS at 37 °C, HPLC-UV/MS; type: physicochemical; settings: 1 mM in 2:1 DMF:PBS, first order fit, rounded to nearest whole day
Method: 8-4b. M20-M27 In Vitro Release Study
In this study, a series of model traceless linker-drug conjugates M20-M27 was held in aqueous solution at 37° C. These reactions were sampled at various timepoints and analyzed to determine the concentration of remaining starting compound. The analytical method was not optimized to determine concentration of the amine-containing drug. Half-life of degradation for the parent was calculated.
Method for Estimation of Conjugate Degradation Rates for M20-M27
Each compound M20-M27 was prepared as a 0.1 M stock solution in DMF. A 35 μL aliquot of each solution was added to 3.465 mL of 2:1 DMF:PBS (for compound M24: 3:1 DMF:PBS) to obtain 1 mM solutions of each compound M20-M27. The reaction vials were held at 37° C. At each time point (e.g., 0, 1, 3, 8, 14, 21, 28, 35, 49, 56, 70, 92 days) analytical samples were prepared by collecting 150 μL from each 1 mM solution and diluting with 75 μL DMF. Two analytical samples were collected from each reaction vial at each time point and stored at 4° C. All samples were analyzed in one batch after completion of the release study. Each sample was analyzed twice using an analytical HPLC method described below.
The composition of the reaction solution was evaluated at each timepoint using HPLC. Compound M20-M27 peaks were assigned by MS detection, and the integration of the peak from the chromatogram generated using UV absorbance detection at 272 nm was determined. The mean peak area for each compound M20-M27 on Day 0 was assigned a normalized value of 100. The absolute area under the curve at each timepoint was compared with these values. Run-to-run peak area reproducibility was typically within 20% on strong signal and considerably worse on weak signals, so normalized signals above 100 likely correspond to values at or approaching 100 (likely 90-100, within experimental error). The percentage of compounds M20-M27 remaining in the solution were calculated by dividing the relevant peak area by the mean area that was assigned a normalized value of 100 and multiplying the result by 100. The percentage of compound M20-M27 present in the solution was plotted versus time and the half-life of degradation was estimated using curve-fitting software assuming first order kinetics.
Analytical HPLC-MS Conditions for Study 8.4b.
All settings the same as for analytical HPLC-MS conditions for study 8.4a except the following: Mobile Phases: A=5 mM ammonium hydroxide in water; B=5 mM ammonium hydroxide in acetonitrile; Flow Rate: 400 μL/min: Gradient (time/% B): 0/10, 0.5/10, 4/80, 8/80, 8.1/10, 12/10. Divert valve switched at 0.5 minutes after sample injection.

Compound | Calculated stability t1/2, parent (d)
CCO[Si](OCC1CN(C(=O)CCNC(=O)OCc2ccccc2)CCN1CC(=O)NCc1ccc(OC)cc1)(C(C)C)C(C)C (stereo not drawn) [M27, benzyl N-(3-(3′-(((ethoxydiisopropylsilyl)oxy)methyl)-4′-(2″-((4′′′-methoxybenzyl)amino)-2″-oxoethyl)piperazin-1′-yl)-3-oxopropyl)carbamate] | No degradation
COc1ccc(CNC(=O)CN2CCN(C(=O)CCNC(=O)OCc3ccccc3)CC2CO[Si](OC(C)C)(C(C)C)C(C)C)cc1 (stereo not drawn) [M26, benzyl N-(3-(3′-(((isopropoxydiisopropylsilyl)oxy)methyl)-4′-(2″-((4′′′-methoxybenzyl)amino)-2″-oxoethyl)piperazin-1′-yl)-3-oxopropyl)carbamate] | No degradation

same assay, conditions: 1 mM in 2:1 DMF:PBS, first order fit, rounded to nearest whole day, read-out: Calculated stability t1/2, parent (converted)

Compound | half-life at 1 mM [days]
CCC(C)O[Si](CC)(CC)OCC1CN(C(=O)CCNC(=O)OCc2ccccc2)CCN1CC(=O)NCc1ccc(OC)cc1 (stereo not drawn) [M25] | 80
CCOCC(C)O[Si](CC)(CC)OCC1CN(C(=O)CCNC(=O)OCc2ccccc2)CCN1CC(=O)NCc1ccc(OC)cc1 (stereo not drawn) [M23] | 47
CC[Si](CC)(OCCOCCOC)OCC1CN(C(=O)CCNC(=O)OCc2ccccc2)CCN1CC(=O)NCc1ccc(OC)cc1 (stereo not drawn) [M22] | 23
CC[Si](CC)(OCC1CN(C(=O)CCNC(=O)OCc2ccccc2)CCN1CC(=O)NCc1ccc(OC)cc1)OC1CCOCC1 (stereo not drawn) [M21] | 126
CC[Si](CC)(OCC1CN(C(=O)CCNC(=O)OCc2ccccc2)CCN1CC(=O)NCc1ccc(OC)cc1)OC(C)C (stereo not drawn) [M20, Benzyl N-(3-(3′-(((diethyl(isopropoxy)silyl)oxy)methyl)-4′-(2″-((4′″-methoxybenzyl)amino)-2″-oxoethyl)piperazin-1′-yl)-3-oxopropyl)carbamate] | 51

same assay, conditions: 1 mM in 3:1 DMF:PBS (compound M24), first order fit, read-out: Calculated stability t1/2, parent (converted)

Compound | half-life at 1 mM [days]
CC[Si](CC)(OCC(C)C)OCC1CN(C(=O)CCNC(=O)OCc2ccccc2)CCN1CC(=O)NCc1ccc(OC)cc1 (stereo not drawn) [M24] | 36

assay: Release study 8-4a: model traceless linker-drug conjugates M1-M19 held in 1×PBS at 37 °C, HPLC-UV/MS; type: physicochemical; settings: 1 mM in 1×PBS, first order fit, rounded to nearest whole day
Method: 8-4a. Release Study Protocol for M1-M19 Model Traceless Linker-Drug Conjugates In Vitro
In this study a series of model traceless linker-drug conjugates, in which the drug is a low molecular weight amine-containing compound, was held in 1×PBS at 37° C. These reactions were sampled at various timepoints and analyzed to determine concentration of remaining starting compound, as well as concentration of the released amine-containing drug (p-methoxybenzylamine, 2-amino-pyridine, p-methoxyaniline, or N-methyl-p-methoxybenzylamine). Half-lives for the parent degradation and the half-lives of release for the amine-containing drug were calculated.
Method for Estimation of Amine-Containing Drug Release Rates from M1-M19
Each compound M1-M19 was prepared as a 0.1 M stock solution in DMF, as were a set of standard solutions for the released amine-containing drug (4-methoxybenzylamine, 2-aminopyridine, p-methoxyaniline, and N-methyl-p-methoxybenzylamine). A 35 μL aliquot of each solution was added to 3.465 mL of PBS to obtain 1 mM solutions of each conjugate or amine-containing drug. A 150 μL aliquot of each 1 mM solution was dispensed into LCMS vials with a polypropylene insert; 2 vials were prepared for each compound at each time point.
The vials were incubated at 37° C. At each time point (e.g., 0, 1, 5, 7, 14, 21, 28, 35, 49, and 56 days), two vials of each conjugate were removed from the incubator and frozen at −20° C. to avoid further hydrolysis. All samples were thawed and analyzed in one batch after completion of the release study using the analytical HPLC method described below. Each sample was analyzed twice. Control solutions of the amine-containing drugs were prepared prior to analysis and were analyzed as is without prior incubation at 37° C.
Analytical HPLC-MS Conditions for Study 8.4a
HPLC: Thermo Accela HPLC and Autosampler; Autosampler Tray Temperature: 8° C.; Injection Volume: 20 μL; Column: Phenomenex Kinetex C18, 2.1×50 mm, 2.6 μm. Column Temperature: Ambient; Mobile Phases: A=0.1% formic acid in water; B=0.1% formic acid in acetonitrile; Flow Rate: 200 μL/min. Gradient (time/% B): 0/0, 3/0, 10/80, 15/80, 15.1/0, 18/0.
UV: Thermo Accela PDA; Scan Range: 200-400 nm; Wavelength Step: 1 nm; Sample Rate: 20 Hz; Filter Bandwidth: 9 nm; MS: Thermo LTQ XL; Ionization Mode: ESI; Spray Voltage: 0 V at time 0-1 minutes then switched to 4 kV; Capillary Temperature: 250° C.; Divert Valve: LC eluate to waste at time 0-1 minutes then flow diverted MS; Mass Range: 120-800 Da.
The composition of the solution was evaluated at each timepoint using HPLC. Parent, intermediate and released amine-containing drug peaks were assigned by MS detection, and the relative amounts of each species were determined by integration of the peaks from the chromatogram generated using UV absorbance detection at 272 nm. The mean peak area for each compound M1-M19 on Day 0 was assigned a normalized value of 100. For the standard of the amine-containing drug being released (e.g., p-methoxybenzylamine) the mean peak area of each standard was assigned a normalized value of 100. The absolute area under curve for each species detected were compared with these values. Run-to-run peak area reproducibility was typically within 20% on strong signal and considerably worse on weak signals, so normalized signals above 100 likely correspond to values at or approaching 100 (likely 90-100, within experimental error). The percentage of parent and amine-containing drug present in the solution were calculated by dividing the relevant peak area by the mean area that was assigned a normalized value of 100 for the same species and multiplying the result by 100. The percentage of parent and amine-containing drug present in the solution was plotted versus time and the half-life of degradation for the parent and the half-life of release for the amine-containing drug were estimated using curve-fitting software assuming first order kinetics.

Compound | Calculated stability t1/2, parent (d)
CNC(=O)OCC1CN(C(C)=O)CCN1CC(=O)NCc1ccc(OC)cc1 (stereo not drawn) [M9, 1-(4′-acetyl-1′-(2″-((4″′-methoxybenzyl)amino)-2″-oxoethyl)piperazin-2′-yl)methyl N-methylcarbamate] | No degradation
COc1ccc(CNC(=O)CN2CCN(C(C)=O)CC2COC2CCCCO2)cc1 (stereo not drawn) [M10, 2-(4′-acetyl-2′-(((tetrahydro-2″H-pyran-2″-yl)oxy)methyl)piperazin-1′-yl)-N-(4′″-methoxybenzyl)acetamide] | No degradation

same assay, conditions: 1 mM in 1×PBS, first order fit, rounded to nearest whole day, read-out: Calculated stability t1/2, parent (converted)

Compound | half-life at 1 mM [days]
CC(=O)OCC1CN(C)CCN1CC(=O)Nc1ccccn1 (stereo not drawn) [M18, 1-(4′-methyl-1′-(2″-oxo-2″-(pyridin-2′″-ylamino)ethyl)piperazin-2′-yl)methyl acetate] | 8
COC(=O)C1CN(C(C)=O)CCN1CC(=O)NCc1ccc(OC)cc1 (stereo not drawn) [M7, methyl 4-acetyl-1-(2′-((4″-methoxybenzyl)amino)-2′-oxoethyl)piperazine-2-carboxylate] | 3
COC(=O)OCC1CN(C(C)=O)CCN1CC(=O)NCc1ccc(OC)cc1 (stereo not drawn) [M8, (4-acetyl-1-(2′-((4″-methoxybenzyl)amino)-2′-oxoethyl)piperazin-2-yl)methyl methyl carbonate] | 35
COCC(=O)OCC1CN(C(=O)CCNC(=O)OCc2ccccc2)CCN1CC(=O)Nc1ccc(OC)cc1 (stereo not drawn) [M5, (4-(3′-(((benzyloxy)carbonyl)amino)propanoyl)-1-(2′-((4″′-methoxyphenyl)amino)-2″-oxoethyl)piperazin-2-yl)methyl 2″″-methoxyacetate] | 3
COCC(=O)OCC1CN(C(=O)CCNC(=O)OCc2ccccc2)CCN1CC(=O)NCc1ccc(OC)cc1 (stereo not drawn) [M3, (4-(3′-(((benzyloxy)carbonyl)amino)propanoyl)-1-(2″-((4″′-methoxybenzyl)amino)-2″-oxoethyl)piperazin-2-yl)methyl methoxyacetate] | 2
CC(=O)OCC1CN(C(C)=O)CCN1CC(=O)Nc1ccccn1 (stereo not drawn) [M17, 1-(4′-acetyl-1′-(2″-oxo-2″-(pyridin-2′″-ylamino)ethyl)piperazin-2′-yl)methyl acetate] | 50
COc1ccc(CNC(=O)CN2CCN(C(C)=O)CC2COC(C)=O)cc1 (stereo not drawn) [M6, (4-acetyl-1-(2′-((4″-methoxybenzyl)amino)-2′-oxoethyl)piperazin-2-yl)methyl acetate] | 26
CCC(=O)OCC1CN(C(=O)CCNC(=O)OCc2ccccc2)CCN1CC(=O)NCc1ccc(OC)cc1 (stereo not drawn) [M1, (4-(3′-(((benzyloxy)carbonyl)amino)propanoyl)-1-(2″-((4″′-methoxybenzyl)amino)-2″-oxoethyl)piperazin-2-yl)methyl propionate] | 37
COc1ccc(CNC(=O)CN2CCN(C(=O)CCNC(=O)OCc3ccccc3)CC2COC(C)=O)cc1 (stereo not drawn) [M2, (4-(3′-(((benzyloxy)carbonyl)amino)propanoyl)-1-(2″-((4″′-methoxybenzyl)amino)-2″-oxoethyl)piperazin-2-yl)methyl acetate] | 23
CCC1CCN(CC(=O)Nc2ccccn2)C(COC(C)=O)C1 (stereo not drawn) [M19, 1-(4′-ethyl-1′-(2″-oxo-2″-(pyridin-2″′-ylamino)ethyl)piperidin-2′-yl)methyl acetate] | 6
COCC(=O)OCC1CN(C(=O)CCNC(=O)OCc2ccccc2)CCN1CC(=O)N(C)Cc1ccc(OC)cc1 (stereo not drawn) [M4, (4-(3′-(((benzyloxy)carbonyl)amino)propanoyl)-1-(2″-((4′″-methoxybenzyl)(methyl)amino)-2″-oxoethyl)piperazin-2-yl)methyl 2-methoxyacetate] | 2
